# Experimental data taken from US20120035161A1, “Novel Compositions and Methods of Treating Diseases Using the Same” (CORRIDOR PHARMACEUTICALS, INC., priority 2006, published 2012).
# What was measured:
# [1] = test system: Aspergillus fumigatus-based mouse asthma model; test: Aspergillus fumigatus-based mouse asthma model, lung resistance; type: in vivo; conditions: 20 mg/ml, intraperitoneally
# Procedure: Compounds of the invention were also tested for efficiacy in an asthma model.
# A cohort of mice was administered intraperitoneal injections of Aspergillus fumigatus on days 0, 14, 26, 27, and 28. Lung resistance was tested on day 29 immediately following a tracheotomy/methacholine procedure. Animals receiving dexamethasone were administered dexamethasone on days 26, 27 and 28. Animals receiving a compound of the invention were administered the compound just hours before the lung resistance test. As a control, all test compounds, as well as dexamethasone, were also administered to mice in the absence of an A. fumigatus insult.
# [2] = test system: Serotonin (5-Hydroxytryptamine) 5-HT1, Non-Selective; test: Assay 271000 radioligand binding, 5-HT1 non-selective; parameters: species or system Wistar Rat
# Procedure: The methods employed in this study have been adapted from the scientific literature to maximize reliability and reproducibility. Reference standards were run as an integral part of each assay to ensure the validity of the results obtained. Assays were performed under conditions as described below. Where presented, IC50 values were determined by a non-linear, least squares regression analysis using the Data Analysis Toolbox (MDL Information Systems, San Leandro, Calif., USA). Where inhibition constants (Ki) are presented, the Ki values were calculated using the equation of Cheng and Prusoff (Cheng, Y., Prusoff, W. H., Biochem. Pharmacol. 22:3099-3108, 1973) using the observed IC50 of the tested compound, the concentration of radioligand employed in the assay, and historical values for the KD of the ligand. Where presented, the Hill coefficient (nu), defining the slope of the competitive binding curve, was calculated using the Data Analysis Toolbox.
compound,measurement,setting,value
NCC(=O)NCCN1CCN(CCCN2c3ccccc3Sc3ccc(C(F)(F)F)cc32)CC1 [ICI-735],Lung resistance,"[1]; A. fumigatus insult, day 29",8.5 cm H2O/ml/s
same,decreasing lung resistance compared with dexamethasone,[1],at least as effective as dexamethasone
same,% INHIBITION,[2]; 0.1 μM,16%
same,% INHIBITION,[2]; 10 μM,63%
